The test system of experiment [1] is Gram negative and Gram positive bacterial infections. Conditions: mice primed with LPS; cited from earlier work.
The test system of the next experiment is P. aeruginosa. Conditions: head to head with MPLA, 20 μg/mouse.

Entries after “also recorded” stand apart in the source; their conditions may differ.

Turning to Lipopolysaccharide [LPS], the “resistance to infection of primed mice” value in experiment [1] was “improved resistance to Gram negative and Gram positive bacterial infections”.

Regarding `CCCCCCCCCCCCCC(=O)OC(CCCCCCCCCCC)CC(=O)NC1C(OCC2OC(O)C(NC(=O)CC(O)CCCCCCCCCCC)C(OC(=O)CC(O)CCCCCCCCCCC)C2O)OC(CO)C(OP(=O)(O)O)C1OC(=O)CC(CCCCCCCCCCC)OC(=O)CCCCCCCCCCCCC.N` (stereo not shown) [PHAD, phosphorylated hexaacyl disaccharide], in the experiment with P. aeruginosa, the “efficacy at augmenting host resistance to bacterial infection compared with MPLA” value (“efficacy … compared with MPLA” for short) was “as effective as MPLA”. In the case of `CCCCCCCCCCCCCC(=O)OC(CCCCCCCCCCC)CC(=O)NC1C(O)OC(COC2OC(CO)C(OP(=O)(O)O)C(OC(=O)CC(CCCCCCCCCCC)OC(=O)CCCCCCCCCCCCC)C2NC(=O)CC(CCCCCCCCCCC)OC(=O)CCCCCCCCCCCCC)C(O)C1O.N` (stereo not shown) [3D(6-acyl) PHAD, 3-D (6-acyl) phosphorylated hexaacyl disaccharide], the “efficacy … compared with MPLA” value in the experiment on P. aeruginosa is “as effective as MPLA”. On to `CCCCCCCCCCCCCC(=O)OC(CCCCCCCCCCC)CC(=O)NC1C(OCC2OC(O)C(NC(=O)CC(O)CCCCCCCCCCC)C(O)C2O)OC(CO)C(OP(=O)(O)O)C1OC(=O)CC(CCCCCCCCCCC)OC(=O)CCCCCCCCCCCCC.N` (stereo not shown) [3D-PHAD, 3-deacyl phosphorylated hexaacyl disaccharide], for which the “efficacy … compared with MPLA” value in the experiment on P. aeruginosa is “as effective as MPLA; also recorded: as efficacious as MPLA”.

These data come from patent US11389465B2, “Phosphorylated hexaacyl disaccharides (PHADs) for treating or preventing infections” (VANDERBILT UNIVERSITY, priority 2017, dated 2022).
